# Measured values reported in ChEMBL document CHEMBL1137719, “Receptor-based 3D-QSAR studies of checkpoint Wee1 kinase inhibitors” (Eur J Med Chem, 2009).
# “And” between values parts separate entries of the source, which are not always exact repeats. Equal values may be shown once.
# Target: Wee1-like protein kinase (Homo sapiens, UniProt P30291)
# Sequence (P30291 whole entry): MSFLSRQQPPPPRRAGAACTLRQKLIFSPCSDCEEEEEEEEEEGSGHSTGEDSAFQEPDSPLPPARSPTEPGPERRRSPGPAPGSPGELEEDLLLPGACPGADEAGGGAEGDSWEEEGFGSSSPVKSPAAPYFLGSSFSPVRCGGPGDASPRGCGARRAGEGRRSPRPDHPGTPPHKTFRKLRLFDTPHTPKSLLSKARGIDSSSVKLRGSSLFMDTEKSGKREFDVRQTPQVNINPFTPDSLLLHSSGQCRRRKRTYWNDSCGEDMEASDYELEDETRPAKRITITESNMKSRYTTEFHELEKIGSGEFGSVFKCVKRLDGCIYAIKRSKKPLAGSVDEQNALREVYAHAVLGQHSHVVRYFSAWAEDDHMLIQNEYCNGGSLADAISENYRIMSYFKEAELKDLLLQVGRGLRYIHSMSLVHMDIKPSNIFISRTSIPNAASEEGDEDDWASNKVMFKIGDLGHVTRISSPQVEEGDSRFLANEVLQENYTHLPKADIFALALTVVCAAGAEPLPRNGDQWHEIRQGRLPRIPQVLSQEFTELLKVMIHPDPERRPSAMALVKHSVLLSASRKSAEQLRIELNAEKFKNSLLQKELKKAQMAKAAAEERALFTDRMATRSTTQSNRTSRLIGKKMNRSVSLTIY
row,SMILES,IC50
1,O=C1NC(=O)c2c1c(I)cc1[nH]c3ccc(O)cc3c21,2340 nM
2,NN1C(=O)c2c(-c3ccccc3)cc3[nH]c4ccc(O)cc4c3c2C1=O,3980 nM
3,O=C1NC(=O)c2c1c(-c1cccc(O)c1Cl)cc1[nH]c3ccc(O)cc3c21,28.2 nM
4,CSc1ccc(-c2cc3[nH]c4ccc(O)cc4c3c3c2C(=O)NC3=O)cc1,31600 nM
5,CC(=O)c1cccc(-c2cc3[nH]c4ccc(O)cc4c3c3c2C(=O)NC3=O)c1,4370 nM
6,O=C1NC(=O)c2c1c(-c1ccccc1)c(-c1ccccc1)c1[nH]c3ccc(O)cc3c21,2340 nM
7,O=C1NC(=O)c2c1cc(-c1ccccc1)c1[nH]c3ccc(O)cc3c21,4070 nM
8,O=C1NC(=O)c2c1c(-c1ccccc1Cl)cc1c2c2cc(O)c(CCCCn3cccc3)cc2n1CCO,24 nM
9,O=C1NC(=O)c2c1c(-c1ccccc1Cl)cc1c2c2c(n1CCO)=CC(OCCCn1cccc1)C(O)(O)C=2 (stereo not given),18 nM and 18.2 nM
10,O=C1NC(=O)c2c1c(-c1ccccc1Cl)cc1c2c2cc(O)c(OCCCn3cccc3)cc2n1CCO,24 nM
11,Cn1c2cc(SCCCn3cccc3)c(O)cc2c2c3c(c(-c4ccccc4Cl)cc21)C(=O)NC3=O,20 nM
12,O=C1NC(=O)c2c1ccc1c2c2cc(O)ccc2n1CCO,25.1 nM and 25 nM
13,Cn1c2cc([S+]([O-])CCCn3cccc3)c(O)cc2c2c3c(c(-c4ccccc4Cl)cc21)C(=O)NC3=O (stereo not given),33 nM and 33.1 nM
14,O=C1NC(=O)c2c1c(-c1c(Cl)cccc1Cl)cc1c2c2cc(O)ccc2n1CCCC(=O)N1CCOCC1,64.6 nM and 64 nM
15,O=C1NC(=O)c2c1c(-c1c(Cl)cccc1Cl)cc1c2c2cc(O)ccc2n1CCCC(=O)n1ccnc1,58.9 nM and 59 nM
16,O=C1NC(=O)c2c1ccc1c2c2cc(O)ccc2n1CCCNc1ccccc1,93.3 nM and 93 nM
17,CN(C)CCNC(=O)CCn1c2ccc(O)cc2c2c3c(ccc21)C(=O)NC3=O,170 nM
18,CN1CCN(CCCn2c3ccc(O)cc3c3c4c(ccc32)C(=O)NC4=O)CC1,302 nM and 300 nM
19,NC(=O)CCn1c2ccc(O)cc2c2c3c(ccc21)C(=O)NC3=O,20.9 nM and 21 nM
20,O=C1NC(=O)c2c1c(-c1ccc(-c3ccccc3)cc1)cc1[nH]c3ccc(O)cc3c21,40000 nM
21,O=C1NC(=O)c2c1c(-c1ccccc1Cl)cc1[nH]c3cc(OCCCn4cccc4)c(O)cc3c21,36 nM and 36.3 nM
22,O=C1NC(=O)c2c1c(-c1ccccc1Cl)cc1c2c2cc(O)ccc2n1CCC(=O)N1CCOCC1,64.6 nM and 64 nM
23,O=C1NC(=O)c2c1c(-c1c(Cl)cccc1Cl)cc1c2c2cc(O)ccc2n1CCC(=O)N1CCOCC1,110 nM

row,SMILES,IC50
1,O=C1NC(=O)c2c1c(-c1ccccc1Cl)cc1c2c2cc(O)ccc2n1CC[S+]([O-])n1ccnn1 (stereo not given),9 nM and 8.91 nM
2,O=C1NC(=O)c2c1c(-c1c(Cl)cccc1Cl)cc1c2c2cc(O)ccc2n1CCC(=O)n1ccnc1,120 nM
3,Nc1cc(-c2cc3[nH]c4ccc(O)cc4c3c3c2C(=O)NC3=O)ccc1Cl,24 nM
4,O=C1NC(=O)c2c1c(-c1ccccc1Cl)cc1c2c2cc(O)ccc2n1CCS(=O)(=O)n1ccnn1,19 nM and 19.1 nM
5,O=C1NC(=O)c2c1ccc1c2c2cc(O)ccc2n1CCC(=O)n1ccnc1,229 nM and 230 nM
6,O=C1NC(=O)c2c1ccc1c2c2cc(O)ccc2n1CCC(=O)N1CCOCC1,140 nM and 141 nM
7,CN(C)CCCn1c2ccc(O)cc2c2c3c(ccc21)C(=O)NC3=O,360 nM and 363 nM
8,Cn1c2cc(CCCCn3cccc3)c(O)cc2c2c3c(c(-c4ccccc4Cl)cc21)C(=O)NC3=O,36 nM and 36.3 nM
9,Cn1c2ccc(O)cc2c2c3c(ccc21)C(=O)NC3=O,141 nM and 140 nM
10,O=C1NC(=O)c2c1ccc1c2c2cc(O)ccc2n1CCCO,200 nM
11,Cn1c2cc(S(=O)(=O)NCCn3cccc3)c(O)cc2c2c3c(c(-c4ccccc4Cl)cc21)C(=O)NC3=O,46 nM and 45.7 nM
12,O=C1NC(=O)c2c1c(-c1ccccc1Cl)cc1[nH]c3cc(CCCCn4cccc4)c(O)cc3c21,50 nM and 50.1 nM
13,CNCCCn1c2ccc(O)cc2c2c3c(ccc21)C(=O)NC3=O,282 nM and 280 nM
14,O=C1NC(=O)c2c1ccc1c2c2cc(O)ccc2n1CCCC(=O)N1CCOCC1,288 nM and 290 nM
15,CN(C)CCn1c2ccc(O)cc2c2c3c(ccc21)C(=O)NC3=O,200 nM
16,O=C(O)CCn1c2ccc(O)cc2c2c3c(ccc21)C(=O)NC3=O,22.9 nM and 23 nM
17,O=C1NC(=O)c2c1c(-c1ccccc1Cl)cc1c2c2cc(O)ccc2n1CCC(=O)n1ccnc1,91.2 nM and 92 nM
18,Cn1c2cc(S(=O)(=O)CCCn3cccc3)c(O)cc2c2c3c(c(-c4ccccc4Cl)cc21)C(=O)NC3=O,160 nM and 158 nM
19,O=C1NC(=O)c2c1ccc1c2c2cc(O)ccc2n1CCCC(=O)n1ccnc1,110 nM
20,O=C1NC(=O)c2c1c(-c1ccccc1Cl)cc1c2c2cc(O)ccc2n1CCSn1ccnn1,24 nM
21,CS(=O)(=O)c1ccc(-c2cc3[nH]c4ccc(O)cc4c3c3c2C(=O)NC3=O)cc1,1120 nM and 1100 nM
22,O=C1NC(=O)c2c1c(-c1ccccc1Cl)cc1c2c2cc(O)ccc2n1CCCC(=O)n1ccnc1,54 nM and 53.7 nM
